Earlier results, collected in patent publication US4291169A, “Substituted naphthoic acids” (American Cyanamid Company, priority 1980, dated 1981).

Experiments:
collagenase [1] = details: Woolley et al. (1978); Seifter and Harper (1971)
collagenase [2] = details: Thromb. Res., 10(4), 605-11 (1977)
alkali burned rabbit = details: directly applied to corneal ulcerations
corneal ulceration = details: human
[3] = compared with cysteine

In the case of “α2 -macroglobulin: Naturally occurring collagnase inhibitors include the serum components, α2 -macroglobulin and β1-anticollagenase”, the “inhibition of connective tissue destruction / collagenase (in words)” value (collagenase [1]) is listed as “Naturally occurring collagnase inhibitors”.
For O[C@H](CS)[C@H](O)CS (relative stereo) [dithiothretol], the “inhibition of connective tissue destruction / collagenase (in words)” value (collagenase [1]) is listed as “collagenase inhibitors”.
For Cc1ccc(C(=O)Nc2ccc(S(=O)(=O)O)c3cc(S(=O)(=O)O)cc(S(=O)(=O)O)c23)cc1NC(=O)c1cccc(NC(=O)Nc2cccc(C(=O)Nc3cc(C(=O)Nc4ccc(S(=O)(=O)O)c5cc(S(=O)(=O)O)cc(S(=O)(=O)O)c45)ccc3C)c2)c1 [Suramin], the “inhibition of the activity of collagenase (in words)” value (collagenase [2]) is given as “not inhibiting the action of collagenase”.
For sodium auriothiomalate, the “inhibition of connective tissue destruction / collagenase (in words)” value (collagenase [1]) is given as “collagenase inhibitors”.
In the case of O=C([O-])CN(CCN(CC(=O)[O-])CC(=O)[O-])CC(=O)[O-].[Ca+2].[Ca+2] [Calcium ethylenediaminetetraacetate], the “frequency of ulceration (in words)” value (alkali burned rabbit) is listed as “reduce the frequency of ulceration”.
For CC(=O)N[C@@H](CS)C(=O)O [acetylcysteine], the “frequency of ulceration (in words)” value (alkali burned rabbit) is given as “reduce the frequency of ulceration”, the “effect in treatment of acute and chronic corneal ulceration (in words)” value (corneal ulceration) is given as “effective in the treatment of acute and chronic corneal ulceration” and the “stability (in words)” value [3] is given as “greater stability”.
In the case of c1cnc2c(c1)ccc1cccnc12 [1,10-phenanthroline], the “inhibition of connective tissue destruction / collagenase (in words)” value (collagenase [1]) is given as “collagenase inhibitors”.
In the case of Cc1cc(-c2ccc(/N=N/c3c(S(=O)(=O)O)cc4cc(S(=O)(=O)O)cc(N)c4c3O)c(C)c2)ccc1/N=N/c1c(S(=O)(=O)O)cc2cc(S(=O)(=O)O)cc(N)c2c1O [trypan blue], the “inhibition of the activity of collagenase (in words)” value (collagenase [2]) is listed as “inhibiting the activity of collagenase, or a proteinase contaminant in the collagenase preparation”.
In the case of N[C@@H](CS)C(=O)O [cysteine], the “inhibition of connective tissue destruction / collagenase (in words)” value (collagenase [1]) is listed as “collagenase inhibitors” and the “effect in treatment of acute and chronic corneal ulceration (in words)” value (corneal ulceration) is listed as “effective in the treatment of acute and chronic corneal ulceration”.
